Laboratory results reported in patent US5750504A, “Antimicrobial proteins” (Zeneca Agrochemicals, priority 1996, dated 1998).

Experiments:
Type in all cases: cell-based
Acremonium hyalinum = assay: Antifungal activity assay (microspectrophotometry); details: strain FAJ98, host Musa, inoculum Sp, period of incubation in AFP-solution 64
Experimental: (§1) Antifungal activity was measured by microspectrophotometry as previously described (Broekaert, 1990, FEMS Microbiol Lett, 69:55-60). Routinely, tests were performed with 20 μl of a (filter-sterilized) test solution and 80 μl of a suspension of fungal spores (2×10^4 spores/ml) in half strength potato dextrose broth (1/2 PDB). […] Control microcultures contained 20 μl of sterile distilled water and 80 μl of the fungal spore suspension.
(§2) Unless otherwise stated the test organism was Fusarium culmorum (strain IMI 180420) and incubation was done at 25° C. for 48 hours. Percent growth inhibition is defined as 100 times the ratio of the corrected absorbance of the control microculture minus the corrected absorbance of the test microculture over the corrected absorbance at 595 nm of the control microculture. The corrected absorbance values equal the absorbance at 595 nm of the culture measured after 48 hours minus the absorbance at 595 nm measured after 30 min.
(§3) The antifungal potency of the purified proteins was assessed on different plant pathogenic fungi, using the assay described in Example 1. Growth of fungi, collection and harvest of fungal spores and preparation of mycelial fragments were done as previously described (Broekaert et al, 1990, FEMS Microbiol Lett, 69:55-60). Serial dilutions of the antifungal proteins were applied to the fungi, either using growth medium SMF- (the synthetic growth medium of Example 1), medium SMF+ (medium SMF- supplemented with 1 mM CaCl2 and 50 mM KCl), growth medium 1/2 PDB- (half strength potato dextrose broth as in Example 1) or growth medium 1/2 PDB+ (medium 1/2 PDB- supplemented with 1 mM CaCl2 and 50 mM Kcl). The percent growth inhibition was measured by microspectrophotometry. The concentration required for 50% growth inhibition after 48 h of incubation (IC50 value) was calculated from the dose-reponse curves.
(§4) The abbreviations used are: IC50 =concentration required for 50% growth inhibition determined as described in Example 1; ND=not determined; Sp=spores; PrSp=spores pregerminated in the medium for 24 hours; MF=mycelial fragments preincubated for 48 hours in the medium prior to addition of the proteins; BHR=broad host range; SF=saprophytic fungus; SMF-=synthetic growth medium as described in Example 1; SMF+=SMF- supplemented with 1 mM CaCl2 and 50 mM KCl; 1/2PDB-=half strength potato dextrose broth as described in Example 1; 1/2PDB+=1/2PDB- supplemented with 1 mM CaCl2 and 50 mM KCl.

Alternaria brassicola = assay: Antifungal activity assay (microspectrophotometry); details: strain MUCL20297, host Brassica, inoculum Sp, period of incubation in AFP-solution 48
Experimental: as §1, §2, §3, §4

Curvularia affinis = assay: Antifungal activity assay (microspectrophotometry); details: strain FAJ97, host Musa, inoculum Sp, period of incubation in AFP-solution 40
Experimental: as §1, §2, §3, §4

Gloeosporium musarum = assay: Antifungal activity assay (microspectrophotometry); details: for IC50: inoculum Sp, period of incubation in AFP-solution 40
Experimental: as §1, §2, §3, §4

Glomerella cingulata = assay: Antifungal activity assay (microspectrophotometry); details: strain FAJ76, host Musa, inoculum Sp, period of incubation in AFP-solution 64
Experimental: as §1, §2, §3, §4

Eschericia coli HB101 = assay: Antibacterial activity assay (microspectrophotometry); details: tested at 200 μg/ml
Experimental: (§5) Antibacterial activity was measured microspectrophotometrically as follows. A bacterial suspension was prepared by inoculating soft nutrient agarose (tryptone, 10 g/l; Seaplaque agarose (FMC), 5 g/l). Aliquots (80 μl) of the bacterial suspension (10^5 colony forming units per ml) were added to filter-sterilized samples (20 μl) in flat-bottom 96-well microplates. The absorbance at 595 nm of the culture was measured with the aid of a microplate reader after 30 minutes and 24 hours of incubation at 28° C. Percent growth inhibition was calculated as described above for the antifungal activity assay.
(§6) The antibacterial activities of Ah-AMP1 and Hs-AFP1 were measured on four gram positive bacteria (Bacillus subtilis JHCC 553331; Micrococcus luteus ATCC 93411; Staphylococcus aureus ATCC 25923; Streptococcus feacolis ATCC 29212) and two gram negative bacteria (Eschericia coli HB101 and Proteus vulgaris JHCC 558711).

[1] = tested on: Micrococcus luteus ATCC 93411; assay: as above; details: tested at 200 μg/ml
Experimental: as §5, §6

[2] = tested on: Proteus vulgaris JHCC 558711; assay: as above; details: tested at 200 μg/ml
Experimental: as §5, §6

[3] = tested on: Staphylococcus aureus ATCC 25923; assay: as above; details: tested at 200 μg/ml
Experimental: as §5, §6

[4] = tested on: Streptococcus feacolis ATCC 29212; assay: as above; details: tested at 200 μg/ml
Experimental: as §5, §6

Row | Substance | IC50 (Acremonium hyalinum; medium SMF+) [mg/L] | IC50 (Acremonium hyalinum; medium SMF-) [mg/L] | IC50 (Alternaria brassicola; medium SMF+) [mg/L] | IC50 (Alternaria brassicola; medium SMF-) [mg/L] | IC50 (Curvularia affinis; medium SMF+) [mg/L] | IC50 (Curvularia affinis; medium SMF-) [mg/L] | reduction of activity in medium SMF- versus SMF+ (Gloeosporium musarum; on Gloeosporium musarum) | IC50 (Gloeosporium musarum; strain FAJ86, host Muaa, medium SMF+) [mg/L] | IC50 (Gloeosporium musarum; strain FAJB6, host Musa, medium SMF-) [mg/L] | IC50 (Glomerella cingulata; medium SMF+) [mg/L] | IC50 (Glomerella cingulata; medium SMF-) [mg/L] | inhibition of bacterial growth (Eschericia coli HB101) | inhibition of bacterial growth [1] | inhibition of bacterial growth [2] | inhibition of bacterial growth [3] | inhibition of bacterial growth [4]
1 | Ah-AMP1: Aesculus hippocastanum antimicrobial protein 1; 5 kDa polypeptide purified from seeds, 50 amino acids, SEQ ID NO 2 (LCNERPSQTWSGNCGNTAHCDKQCQDWEKASHGACHKRENHWKCFCYFNC) | 12.5 | < 0.75 | 12 | 1.5 | 25 | 0.75 | more than ten-fold | 12.5 | < 0.75 | 12.5 | < 0.75 | – | – | – | – | –
2 | Hs-AFP1: Heuchera sanquinea antifungal protein 1; 5 kDa polypeptide purified from seeds, 54 amino acids, SEQ ID NO 1 (DGVKLCDVPSGTWSGHCGSSSKCSQQCKDREHFAYGGACHYQFPSVKCFCKRQC) | – | – | – | – | – | – | – | – | – | – | – | did not inhibit the growth | did not inhibit the growth | did not inhibit the growth | did not inhibit the growth | did not inhibit the growth
